Assay results taken from article PMC10601815, “αβ,α′β′-Diepoxyketones are mechanism-based inhibitors of nucleophilic cysteine enzymes” (Chemical Communications (Cambridge, England), 2023).
Values joined by “and” are separate entries in the source; they are usually repeats but may differ in a detail not shown here. Equal entries are not always repeated. Where two headings read alike, the source gives them in different places.

What was measured:
[1] = for kchem (kinetic rate constant for reactivity with GSH): 500 nM L-glutathione, 10 µM Probe 1, pH 7.2; for half-life (t1/2) of reaction with GSH: buffer
LdtMt2 [2] = biological target: T1, LdtMt2 (Mycobacterium tuberculosis, UniProt I6Y9J2); type: binding
T1 sequence (I6Y9J2 56-408): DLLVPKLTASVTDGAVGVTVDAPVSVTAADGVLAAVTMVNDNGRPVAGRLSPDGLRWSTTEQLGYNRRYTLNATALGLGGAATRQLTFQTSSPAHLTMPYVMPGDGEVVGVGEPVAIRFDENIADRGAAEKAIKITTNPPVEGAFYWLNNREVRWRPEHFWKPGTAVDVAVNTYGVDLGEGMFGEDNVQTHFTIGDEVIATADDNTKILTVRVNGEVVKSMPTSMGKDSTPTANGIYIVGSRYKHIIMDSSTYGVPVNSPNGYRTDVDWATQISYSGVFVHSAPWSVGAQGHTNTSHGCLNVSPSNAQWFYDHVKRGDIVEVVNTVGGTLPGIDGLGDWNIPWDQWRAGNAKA

LdtMt2 [3] = biological target: T1, LdtMt2; assay: biochemical
LdtMt2 [4] = biological target: T1, LdtMt2; assay: biochemical; conditions: for IC50: read-out: pIC50 LdtMt2 (converted)
[5] = 1 µM LdtMt2, inhibitor 20 µM (100 µM for 12), rt, 15 min
[6] = 1 µM LdtMt2, inhibitor 20 µM (100 µM for 12), rt, 24 h

Structure (SMILES)	kchem (kinetic rate constant for reactivity with GSH) [1]	Area (%) 15 min, assignment Retro-aldol fragment (3) (LdtMt2 [2]) [%]	Area (%) 15 min, assignment Unfragmented (2) (LdtMt2 [2]) [%]	Area (%) 15 min, assignment Unmodified LdtMt2 (LdtMt2 [2]) [%]	Area (%) 24 h, assignment Dha (-34 Da) (LdtMt2 [2])	Area (%) 24 h, assignment Retro-aldol fragment (3) (LdtMt2 [2]) [%]	Area (%) 24 h, assignment Unfragmented (2) (LdtMt2 [2]) [%]	Area (%) 24 h, assignment Unmodified LdtMt2 (LdtMt2 [2]) [%]	kinact/KI LdtMt2 (LdtMt2 [3]) [M⁻¹ s⁻¹]	pIC50 LdtMt2 (LdtMt2 [4])	further results
COc1ccccc1C1OC1C(=O)C1OC1c1ccccc1OC (mixture of isomers) [DEK 5]	< 0.8 M⁻¹ s⁻¹	9.0	77.9	2.5	~30% and 30.4%	39.6	0.0	0.0	61.1 ± 2.78	–	Area (%) 15 min, adduct with assignment N.D. (+309 Da for 5, +80 Da for 8 and 9) (LdtMt2 [2]): 0.0%; Area (%) 15 min, assignment Dha (-34 Da) (LdtMt2 [2]): 0.0%; Area (%) 15 min, assignment Unassigned fragment / Fragment II (+56/+57 Da) (LdtMt2 [2]): 0.0%; Area (%) 24 h, adduct with assignment N.D. (+309 Da for 5, +80 Da for 8 and 9) (LdtMt2 [2]): 4.22%
Cc1cccc(C)c1C1OC1C(=O)C1OC1c1c(C)cccc1C (mixture of isomers) [DEK 8]	1.11 ± 0.20 M⁻¹ s⁻¹ and 1.1 ± 0.2 M⁻¹ s⁻¹	0.0	–	100.0	–	16.3	–	68.8	< 10.0	–	half-life (t1/2) of reaction with GSH [1]: 38 min; Area (%) 15 min, adduct with assignment N.D. (+309 Da for 5, +80 Da for 8 and 9) (LdtMt2 [2]): 0.0%; Area (%) 24 h, adduct with assignment N.D. (+309 Da for 5, +80 Da for 8 and 9) (LdtMt2 [2]): 14.9%; inhibition of LdtMt2 in the kinact/KI determination (in words) (LdtMt2 [3]): no evidence for inhibition
O=C(C1OC1c1ccccc1)C1OC1c1ccccc1 (mixture of isomers) [diastereomeric mixture of 1]	–	–	–	–	–	–	–	–	–	5.59 ± 0.036 and 5.6 ± 0.04	–
O=C(c1ccccc1)C1OC1c1ccccc1 (racemic) [Epoxide 12, reference compound]	–	0.0	8.6	91.4	–	87.2	0.0	12.8	–	< 4.4	inhibition of LdtMt2 in dose-response assays (in words) (LdtMt2 [4]): did not manifest inhibition; covalent reaction with LdtMt2 (in words) (LdtMt2 [2]): evidenced covalent reaction
Cc1cc(C)cc([C@@H]2O[C@H]2C(=O)[C@@H]2O[C@H]2c2cc(C)cc(C)c2)c1 (relative stereo) [DEK 7]	1.71 ± 0.24 M⁻¹ s⁻¹ and 1.7 ± 0.2 M⁻¹ s⁻¹	43.7	44.8	11.5	~16% and 16.2%	70.3	0.0	0.0	80.9 ± 6.74	–	half-life (t1/2) of reaction with GSH [1]: 24 min; Area (%) 15 min, assignment Dha (-34 Da) (LdtMt2 [2]): 0.0%; Area (%) 15 min, assignment Unassigned fragment / Fragment II (+56/+57 Da) (LdtMt2 [2]): 0.0%
O=C([C@H]1O[C@@H]1c1ccccc1)[C@@H]1O[C@H]1c1ccccc1 [DEK 1]	< 0.8 M⁻¹ s⁻¹	–	–	–	–	–	–	–	–	–	IC50 (LdtMt2 [4]; 15 min preincubation, 100 nM LdtMt2, 25 µM Probe 1, n=4): 617 nM and 631 nM; IC50 (LdtMt2 [4]; 30 min pre-incubation): 63.1 nM; IC50 (LdtMt2 [4]; Table S3, 10 min pre-incubation, 100 nM LdtMt2, 25 µM Probe 1): 1000 nM; Area (%) 15 min, assignment Dha (-34 Da) (LdtMt2 [2]; [5]): 0.0%; Area (%) 15 min, assignment Retro-aldol fragment (3) (LdtMt2 [2]; [5]): 23.3%; Area (%) 15 min, assignment Unfragmented (2) (LdtMt2 [2]; [5]): 74.7%; Area (%) 15 min, assignment Unmodified LdtMt2 (LdtMt2 [2]; [5]): 2.0%; Area (%) 24 h, assignment Dha (-34 Da) (LdtMt2 [2]; [6]): ~5% and 5.0%; Area (%) 24 h, assignment Retro-aldol fragment (3) (LdtMt2 [2]; [6]): 82.0%; Area (%) 24 h, assignment Unfragmented (2) (LdtMt2 [2]; [6]): 7.2%; Area (%) 24 h, assignment Unmodified LdtMt2 (LdtMt2 [2]; [6]): 0.0%; Area (%) 15 min, assignment Unassigned fragment / Fragment II (+56/+57 Da) (LdtMt2 [2]; 1 µM LdtMt2, inhibitor 20 µM, rt, 15 min): 0.0%; covalent reaction with LdtMt2 (in words) (LdtMt2 [2]; 1 µM LdtMt2, inhibitor 20 µM (100 µM for 12)): covalently reacts with LdtMt2; time for conversion of the initial adduct (2, +267 Da) into the +160 Da adduct (3) (LdtMt2 [2]; 1 (20 µM), LdtMt2 (1 µM)): ≤ 2 h; kinact/KI (LdtMt2 [3]; 100 nM LdtMt2, 10 µM Probe 1, 3.5 h): 484 ± 28.4 M⁻¹ s⁻¹
O=C(C1OC1c1ccc(OC(F)(F)F)cc1)C1OC1c1ccc(OC(F)(F)F)cc1 (stereo not shown) [DEK 4]	< 0.8 M⁻¹ s⁻¹	18.1	5.41	76.5	~2.5% and 2.4%	97.6	0.0	0.0	< 10.0	–	Area (%) 15 min, assignment Dha (-34 Da) (LdtMt2 [2]): 0.0%; inhibition of LdtMt2 in the kinact/KI determination (in words) (LdtMt2 [3]): no evidence for inhibition
O=C(C1OC1c1ccccc1OC(F)(F)F)C1OC1c1ccccc1OC(F)(F)F (stereo not shown) [DEK 6]	< 0.8 M⁻¹ s⁻¹	11.6	81.2	7.2	no evidence for Dha formation	93.2	0.0	2.6	140.6 ± 17.1	–	Area (%) 15 min, assignment Unassigned fragment / Fragment II (+56/+57 Da) (LdtMt2 [2]): 0.0%
O=C1C2(CCC13OC3c1ccccc1)OC2c1ccccc1 (stereo not shown) [DEK 9]	< 0.8 M⁻¹ s⁻¹	68.8	21.0	3.3	–	90.9	0.0	0.0	25.8 ± 1.41	–	Area (%) 15 min, adduct with assignment N.D. (+309 Da for 5, +80 Da for 8 and 9) (LdtMt2 [2]): 6.9%; Area (%) 24 h, adduct with assignment N.D. (+309 Da for 5, +80 Da for 8 and 9) (LdtMt2 [2]): 9.1%
O=C1C2(CCCC13OC3c1ccccc1)OC2c1ccccc1 (stereo not shown) [DEK 10]	< 0.8 M⁻¹ s⁻¹	–	0.0	100.0	–	–	9.8	90.2	< 10.0	< 4.4	inhibition of LdtMt2 in the kinact/KI determination (in words) (LdtMt2 [3]): no evidence for inhibition
O=C1C2(CCCCC13OC3c1ccccc1)OC2c1ccccc1 (stereo not shown) [DEK 11]	–	–	–	100.0	–	–	–	100.0	–	< 4.4	–
